Measured values: DBAASP
≈ marks a conversion by molar mass, not a printed value.

Key:
Assay in all cases: ≥ marks a high value that may be exact or a test limit, other limits are often not marked, values filed in µg/mL are converted to µM
[1] = system: Escherichia coli ATCC 25922
[2] = system: Staphylococcus epidermidis ATCC 12228
[3] = system: Staphylococcus aureus ATCC 29213
Staphylococcus aureus = system: Staphylococcus aureus
Escherichia coli = system: Escherichia coli
Pseudomonas aeruginosa = system: Pseudomonas aeruginosa
[4] = system: Pseudomonas aeruginosa ATCC 27853

Row | Structure (SMILES) | MIC [1] | MIC [3] | also measured
1 | CC(C)C[C@H](NC(=O)[C@H](CC(C)C)NC(=O)[C@H](CCCCN)NC(=O)[C@H](CCCCN)NC(=O)[C@H](CC(C)C)NC(=O)[C@H](CC(C)C)NC(=O)[C@H](CCCCN)NC(=O)[C@H](CC(C)C)NC(=O)[C@H](CC(C)C)NC(=O)[C@H](CCCCN)NC(=O)[C@H](CCCCN)NC(=O)[C@@H](N)CC(C)C)C(=O)N[C@@H](CCCCN)C(=O)N[C@@H](C)C(=O)N[C@@H](C)C(=O)NCC(=O)O [LKKLLKLLKKLLKAAG] | 10 µM (≈ 17.8 µg/mL) | 10 µM (≈ 17.8 µg/mL) | –
2 | CC[C@H](C)[C@H](NC(=O)[C@@H](NC(=O)[C@H](Cc1ccccc1)NC(=O)[C@H](CCCCN)NC(=O)[C@H](C)NC(=O)[C@H](CC(C)C)NC(=O)[C@H](CCCCN)NC(=O)CNC(=O)[C@H](CC(C)C)NC(=O)[C@@H](NC(=O)[C@@H](NC(=O)CNC(=O)[C@H](C)NC(=O)[C@H](C)NC(=O)[C@@H](NC(=O)[C@H](C)NC(=O)[C@H](CCSC)NC(=O)CN)[C@@H](C)O)[C@@H](C)O)[C@@H](C)O)C(C)C)C(=O)NCC(=O)N[C@@H](C)C(=O)N[C@H](C(N)=O)C(C)C [GMATAAGTTLGKLAKFVIGAV] | – | – | MIC (Staphylococcus aureus): > 80 µM; MIC (Escherichia coli): > 80 µM
3 | CC[C@H](C)[C@H](NC(=O)[C@H](Cc1ccccc1)NC(=O)[C@H](CO)NC(=O)[C@H](CC(N)=O)NC(=O)[C@H](Cc1c[nH]c2ccccc12)NC(=O)[C@@H](N)CCCCN)C(=O)N[C@@H](CCCCN)C(=O)N[C@@H](CCCCN)C(=O)N[C@@H](CC(C)C)C(=O)N[C@H](C(=O)N[C@@H](CO)C(=O)N[C@@H](CCCCN)C(=O)N[C@@H](Cc1ccccc1)C(=O)N[C@@H](CC(C)C)C(=O)N[C@@H](Cc1cnc[nH]1)C(=O)N[C@@H](CO)C(=O)N[C@@H](C)C(=O)N[C@@H](CCCCN)C(=O)N[C@@H](CCCCN)C(=O)N[C@@H](Cc1ccccc1)C(N)=O)[C@@H](C)O [KWNSFIKKLTSKFLHSAKKF] | – | – | MIC (Pseudomonas aeruginosa): 5.13 µM (≈ 12.5 µg/mL)
4 | CC[C@H](C)[C@H](NC(=O)[C@H](C)NC(=O)[C@H](CCCCN)NC(=O)[C@@H](N)CCC(N)=O)C(=O)N[C@@H](CCCN=C(N)N)C(=O)N[C@H](C(=O)N[C@@H](CCCN=C(N)N)C(=O)N[C@@H](CC(C)C)C(=O)N[C@@H](CO)C(=O)N[C@@H](C)C(=O)O)C(C)C [QKAIRVRLSA] | 7.01 µM (≈ 8 µg/mL) | > 56.1 µM | MIC [4]: 7.01 µM (≈ 8 µg/mL)
5 | CC[C@H](C)[C@H](NC(=O)CNC(=O)[C@H](CC(C)C)NC(=O)[C@@H](NC(=O)[C@@H](N)Cc1ccc(O)cc1)[C@@H](C)O)C(=O)N[C@@H](CCCCN)C(=O)N[C@H](C(=O)N[C@@H](CC(C)C)C(=O)N[C@@H](Cc1c[nH]c2ccccc12)C(=O)N[C@@H](CO)C(=O)N[C@@H](C)C(=O)N[C@@H](Cc1ccc(O)cc1)C(=O)N[C@@H](CCCCN)C(=O)N[C@@H](Cc1cnc[nH]1)C(=O)O)[C@@H](C)CC [YTLGIKILWSAYKH] | – | – | MIC [2]: 50 µM (≈ 84.7 µg/mL)
6 | NC(=O)[C@H](Cc1ccccc1)NC(=O)[C@H](Cc1ccccc1)NC(=O)[C@H](Cc1ccccc1)NC(=O)[C@H](Cc1ccccc1)NC(=O)[C@@H]1CCCN1C(=O)[C@H](CCCN=C(N)N)NC(=O)[C@@H]1CCCN1C(=O)[C@H](CCCN=C(N)N)NC(=O)[C@@H]1CCCN1C(=O)[C@H](CCCN=C(N)N)NC(=O)[C@@H]1CCCN1C(=O)[C@H](CCCN=C(N)N)NC(=O)[C@@H](N)CCCN=C(N)N [RRPRPRPRPFFFF] | 80 µM (≈ 142 µg/mL) | 20 µM (≈ 35.5 µg/mL) | MIC [4]: 40 µM (≈ 71 µg/mL)
7 | CC[C@H](C)[C@H](NC(=O)[C@@H](NC(=O)[C@H](C)NC(=O)[C@H](CCCN=C(N)N)NC(=O)[C@H](CC(N)=O)NC(=O)[C@H](Cc1ccccc1)NC(=O)[C@H](CO)NC(=O)[C@@H](N)C(C)C)C(C)C)C(=O)N[C@@H](Cc1cnc[nH]1)C(=O)N[C@@H](CO)C(=O)N[C@@H](CC(C)C)C(=O)N[C@@H](CC(C)C)C(=O)NCC(N)=O [VSFNRAVIHSLLG] | > 496 µM | > 496 µM | –
8 | CC(C)C[C@H](NC(=O)[C@H](Cc1ccccc1)NC(=O)[C@@H]1CCCN1C(=O)[C@H](Cc1ccc(O)cc1)NC(=O)[C@H](Cc1ccc(O)cc1)NC(=O)[C@H](Cc1ccc(O)cc1)NC(=O)[C@@H]1CCCN1C(=O)[C@H](Cc1ccccc1)NC(=O)[C@H](CCCN=C(N)N)NC(=O)[C@H](CCCN=C(N)N)NC(=O)[C@@H](N)C(C)C)C(=O)N[C@@H](CCCN=C(N)N)C(=O)N[C@@H](CCCN=C(N)N)C(N)=O [VRRFPYYYPFLRR] | 22.6 µM (≈ 41.5 µg/mL) | – | MIC (Staphylococcus aureus): 12.2 µM (≈ 22.3 µg/mL); MIC (Escherichia coli): 27.3 µM (≈ 50 µg/mL)
9 | CC(C)[C@H](NC(=O)[C@H](Cc1c[nH]c2ccccc12)NC(=O)[C@H](Cc1c[nH]c2ccccc12)NC(=O)[C@@H](N)CCCN=C(N)N)C(=O)N[C@@H](C)C(=O)N[C@@H](Cc1c[nH]c2ccccc12)C(=O)N[C@@H](CCCN=C(N)N)C(=O)N[C@@H](CC(N)=O)C(=O)N[C@@H](CCCN=C(N)N)C(=O)O [RWWVAWRNR] | 47 µM (≈ 62.5 µg/mL) | 94 µM (≈ 125 µg/mL) | –
10 | CC(=O)N[C@@H](CCCCN)C(=O)N[C@@H](CC(C)C)C(=O)N[C@@H](CC(C)C)C(=O)N[C@@H](CCCCN)C(=O)N[C@@H](CC(C)C)C(=O)N[C@@H](CC(C)C)C(=O)N[C@@H](CCCCN)C(=O)N[C@@H](CCCCN)C(=O)N[C@@H](CC(C)C)C(=O)N[C@@H](CC(C)C)C(=O)N[C@@H](CCCCN)C(=O)N[C@@H](CC(C)C)C(=O)N1CCC[C@H]1C(=O)N[C@@H](CCCCN)C(N)=O [KLLKLLKKLLKLPK] | 14.1 µM (≈ 24.3 µg/mL) | 10 µM (≈ 17.2 µg/mL) | –
11 | CC[C@H](C)[C@H](NC(=O)[C@H](CCCCN)NC(=O)[C@H](CC(C)C)NC(=O)CNC(=O)[C@H](C)NC(=O)[C@H](CCCCN)NC(=O)[C@H](CC(C)C)NC(=O)[C@H](C)NC(=O)[C@H](CCCCN)NC(=O)CNC(=O)[C@H](CC(C)C)NC(=O)[C@H](Cc1ccccc1)NC(=O)[C@H](CO)NC(=O)[C@H](C)NC(=O)[C@H](CC(C)C)NC(=O)CN)C(=O)NCC(=O)N[C@@H](CO)C(=O)N[C@@H](Cc1cnc[nH]1)C(=O)N[C@@H](CC(C)C)C(=O)N[C@@H](CC(C)C)C(=O)NCC(=O)NCC(=O)N[C@@H](C)C(=O)N1CCC[C@H]1C(=O)N[C@@H](CCC(N)=O)C(=O)N[C@@H](CCC(N)=O)C(=O)O [GLASFLGKALKAGLKIGSHLLGGAPQQ] | – | – | MIC (Staphylococcus aureus): 6 µM (≈ 15.8 µg/mL); MIC (Escherichia coli): 25 µM (≈ 65.8 µg/mL)
12 | CC[C@H](C)[C@H](NC(=O)[C@H](CCCCN)NC(=O)[C@H](CCCCN)NC(=O)[C@@H](N)CCC(N)=O)C(=O)N[C@@H](CCCN=C(N)N)C(=O)N[C@@H](C)C(=O)N[C@@H](CCCN=C(N)N)C(=O)N[C@@H](CC(C)C)C(=O)N[C@@H](CO)C(=O)N[C@@H](C)C(=O)O [QKKIRARLSA] | > 54.7 µM | > 54.7 µM | MIC [4]: > 54.7 µM
13 | CC[C@H](C)[C@H](NC(=O)[C@H](CCSC)NC(=O)[C@H](C)NC(=O)[C@@H]1CCCN1C(=O)[C@@H](NC(=O)[C@@H](NC(=O)[C@H](CCCCN)NC(=O)[C@@H](NC(=O)[C@H](CC(C)C)NC(=O)CNC(=O)CNC(=O)[C@H](CC(C)C)NC(=O)[C@@H](N)Cc1ccccc1)[C@@H](C)CC)[C@@H](C)CC)C(C)C)C(=O)N[C@@H](CS)C(=O)N[C@@H](C)C(=O)N[C@H](C(=O)N[C@H](C(=O)N[C@@H](CCCCN)C(=O)N[C@@H](CCCCN)C(=O)O)[C@@H](C)O)C(C)C [FLGGLIKIVPAMICAVTKK] | 128 µM (≈ 256 µg/mL) | 63.9 µM (≈ 128 µg/mL) | MIC [4]: 63.9 µM (≈ 128 µg/mL)

Further lines, with some results ahead:

Row | MIC [1] | MIC [3] | Structure (SMILES) | also measured
14 | 10 µM (≈ 27.1 µg/mL) | – | CC[C@H](C)[C@H](NC(=O)CN)C(=O)N[C@@H](CCCCN)C(=O)N[C@@H](CCCCN)C(=O)N[C@@H](Cc1c[nH]c2ccccc12)C(=O)N1CCC[C@H]1C(=O)N[C@@H](Cc1cnc[nH]1)C(=O)N[C@@H](CO)C(=O)N1CCC[C@H]1C(=O)N[C@@H](CCCCN)C(=O)N[C@@H](CCCCN)C(=O)N[C@@H](Cc1ccccc1)C(=O)NCC(=O)N[C@@H](CCCCN)C(=O)N[C@@H](CCCCN)C(=O)N[C@@H](Cc1ccccc1)C(=O)N[C@H](C(=O)N[C@@H](CCCCN)C(=O)N[C@@H](CCCCN)C(=O)N[C@H](C(=O)N[C@@H](CCSC)C(=O)N[C@@H](CC(N)=O)C(=O)N[C@@H](CO)C(N)=O)[C@@H](C)CC)C(C)C [GIKKWPHSPKKFGKKFVKKIMNS] | MIC [2]: 10 µM (≈ 27.1 µg/mL)
15 | > 80 µM | – | CC[C@H](C)[C@H](NC(=O)CN)C(=O)N[C@@H](CCCCN)C(=O)N[C@@H](CCCCN)C(=O)N[C@@H](Cc1c[nH]c2ccccc12)C(=O)N[C@@H](CC(C)C)C(=O)N[C@@H](Cc1cnc[nH]1)C(=O)N[C@@H](CO)C(=O)N1CCC[C@H]1C(=O)N[C@@H](CCCCN)C(=O)N[C@@H](CCCCN)C(=O)N[C@@H](Cc1ccccc1)C(=O)NCC(=O)N[C@@H](CCCCN)C(=O)N[C@@H](CCCCN)C(=O)N[C@@H](Cc1ccccc1)C(=O)N1CCC[C@H]1C(=O)N[C@@H](CCCCN)C(=O)N[C@@H](CCCCN)C(=O)N[C@H](C(=O)N[C@@H](CCSC)C(=O)N[C@@H](CC(N)=O)C(=O)N[C@@H](CO)C(N)=O)[C@@H](C)CC [GIKKWLHSPKKFGKKFPKKIMNS] | MIC [2]: 10 µM (≈ 27.3 µg/mL)
16 | 40 µM (≈ 110 µg/mL) | – | CC[C@H](C)[C@H](NC(=O)CN)C(=O)N[C@@H](CCCCN)C(=O)N[C@@H](CCCCN)C(=O)N[C@@H](Cc1c[nH]c2ccccc12)C(=O)N1CCC[C@H]1C(=O)N[C@@H](Cc1cnc[nH]1)C(=O)N[C@@H](CCCCN)C(=O)N1CCC[C@H]1C(=O)N[C@@H](CCCCN)C(=O)N[C@@H](CCCCN)C(=O)N[C@@H](Cc1ccccc1)C(=O)NCC(=O)N[C@@H](CCCCN)C(=O)N[C@@H](CCCCN)C(=O)N[C@@H](Cc1ccccc1)C(=O)N[C@H](C(=O)N[C@@H](CCCCN)C(=O)N[C@@H](CCCCN)C(=O)N[C@H](C(=O)N[C@@H](CCCCN)C(=O)N[C@@H](CC(N)=O)C(=O)N[C@@H](CO)C(N)=O)[C@@H](C)CC)C(C)C [GIKKWPHKPKKFGKKFVKKIKNS] | MIC [2]: 10 µM (≈ 27.5 µg/mL)
17 | 5 µM (≈ 8.74 µg/mL) | > 40 µM | CC[C@H](C)[C@H](NC(=O)[C@H](CCCN=C(N)N)NC(=O)[C@H](CCC(N)=O)NC(=O)[C@H](CCC(N)=O)NC(=O)[C@@H](NC(=O)[C@H](CCCN=C(N)N)NC(=O)[C@H](CCCCN)NC(=O)[C@@H](N)Cc1ccccc1)[C@@H](C)CC)C(=O)N[C@@H](CCCCN)C(=O)N[C@@H](CC(=O)O)C(=O)N[C@@H](Cc1ccccc1)C(=O)N[C@@H](CC(C)C)C(=O)N[C@@H](CCCN=C(N)N)C(=O)O [FKRIQQRIKDFLR] | –
